Test results: the NIST ThermoML archive (doi:10.1021/acs.jced.8b01204)

Test: xn = mol fraction of the nth substance listed
Settings: 101 kPa, Liquid; for speed of sound: Single path-length method; for mass density: Vibrating tube method

C[N+]1(CC2CO2)CCCC1=O.O=C([O-])c1ccccc1O (stereo not given) [1-methyl-1-(oxiran-2-ylmethyl)-2-oxopyrrolidinium salicylate] + CCC(=O)O
Settings | mass density, 293.15 K [kg/m3] | mass density, 298.15 K [kg/m3] | mass density, 303.15 K [kg/m3] | mass density, 308.15 K [kg/m3] | mass density, 313.15 K [kg/m3] | speed of sound, 293.15 K [m/s] | speed of sound, 298.15 K [m/s] | speed of sound, 303.15 K [m/s] | speed of sound, 308.15 K [m/s] | speed of sound, 313.15 K [m/s]
x1 = 0.0303 | 1018.7 | 1013.6 | 1008.2 | 1003.2 | 998 | 1211.9 | 1193.4 | 1175 | 1156.8 | 1138.9
x1 = 0.0701 | 1046.2 | 1041.2 | 1036.2 | 1031.3 | 1026.3 | 1266.7 | 1248.7 | 1230.8 | 1213.2 | 1195.8
x1 = 0.1006 | 1063.4 | 1058.6 | 1053.7 | 1048.9 | 1044 | 1303.5 | 1286 | 1268.5 | 1251.1 | 1233.7
x1 = 0.2 | 1105.7 | 1101.9 | 1096.5 | 1091.8 | 1087.2 | 1400.3 | 1383.3 | 1366.1 | 1349.2 | 1332.5
x1 = 0.3007 | 1133.9 | 1129.4 | 1124.9 | 1120.4 | 1115.9 | 1465.8 | 1449 | 1432 | 1415.3 | 1398.7
x1 = 0.4009 | 1153.6 | 1149.2 | 1144.8 | 1140.3 | 1135.9 | 1505.7 | 1488.9 | 1472 | 1455.4 | 1439
x1 = 0.501 | 1168.6 | 1164.2 | 1159.8 | 1155.4 | 1151 | 1538.8 | 1521.9 | 1505 | 1488.4 | 1472
x1 = 0.6002 | 1180.6 | 1176.3 | 1172 | 1167.6 | 1163.3 | 1565.4 | 1547.8 | 1530.9 | 1514.3 | 1497.9
x1 = 0.7002 | 1190.5 | 1186.2 | 1181.9 | 1177.6 | 1173.3 | 1584.5 | 1566.8 | 1549.5 | 1532.7 | 1516.3
x1 = 0.8005 | 1198.3 | 1194.1 | 1189.8 | 1185.5 | 1181.2 | 1599.7 | 1581.7 | 1564.2 | 1547.3 | 1530.8
x1 = 0.901 | 1204.6 | 1200.4 | 1196.1 | 1191.8 | 1187.5 | 1615.4 | 1596.4 | 1578.6 | 1561.5 | 1544.9
x1 = 1 | 1209.8 | 1205.5 | 1201.3 | 1197.2 | 1193 | 1634.2 | 1614.5 | 1595.7 | 1577.6 | 1559.5
